Our source for the GI50 and TGI values is PubChem BioAssay (NCI).

Test systems include OVCAR-4 ovarian; U251 CNS; HL-60(TB) leukemia; TK-10 renal; M14 melanoma; HCT-15 colon; MDA-MB-435; SK-MEL-2 melanoma; EKVX NSCLC; OVCAR-8 ovarian.
Holding throughout (experiment): inhibition of tumour cell growth, NCI panel, 48 h

Several values for one entry are separate records, joined by “and”; a condition that tells them apart may be missing. Equal values may be shown once.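 Step 1: Grow cells in 96-well plates. Step 2: Expose to compound for 48 hours at 5 concentrations. Step 3: Interpolate endpoints linearly; if unreached, use highest concentration. GI50 marks 50% less growth. At the TGI there is no net growth.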

As for `c1ccc(-c2[nH]ncc2-c2ccnc(-c3ccc(OCCn4ccnc4)cc3)c2)nc1`, the GI50 in the assay with OVCAR-4 ovarian was 16.1 µM; in the assay with U251 CNS it was > 25000 nM; in the assay with HL-60(TB) leukemia it was > 25000 nM; in the assay with TK-10 renal it was > 25000 nM; in the assay on M14 melanoma, > 25000 nM; in the assay with HCT-15 colon, 22000 nM. For the same compound, the GI50 was 24500 nM in the assay with MDA-MB-435, > 25000 nM with SK-MEL-2 melanoma, > 25000 nM in the assay on EKVX NSCLC and 14.4 µM in the assay on OVCAR-8 ovarian. Moreover, the TGI with OVCAR-4 ovarian is > 25 µM; in the assay with U251 CNS it was > 25 µM; in the assay on HL-60(TB) leukemia it was > 25000 nM; in the assay with TK-10 renal, > 25 µM; in the assay with M14 melanoma, > 25 µM; with HCT-15 colon, > 25 µM. Moreover, the TGI with MDA-MB-435, in the assay on SK-MEL-2 melanoma, with EKVX NSCLC and in the assay with OVCAR-8 ovarian was > 25 µM in each case.
Consider `Cc1nn(-c2ccc(Cl)cc2)c2ncnc(N/N=C/c3ccccc3O)c12`, for which the GI50 in the assay with OVCAR-4 ovarian was 0.436 µM and 0.237 µM; in the assay with U251 CNS, 508 nM and 370 nM; in the assay with HL-60(TB) leukemia, 335 nM and 305 nM; in the assay on TK-10 renal, 2330 nM and 1860 nM; in the assay with M14 melanoma, 523 nM and 340 nM; in the assay with HCT-15 colon, 407 nM and 331 nM. Besides, the GI50 with MDA-MB-435 is 1100 nM and 571 nM; with SK-MEL-2 melanoma, 1240 nM and 1590 nM; in the assay with EKVX NSCLC it was 960 nM and 993 nM; in the assay on OVCAR-8 ovarian, 0.42 µM and 0.361 µM. Moreover, the TGI is 50.9 µM and 14.2 µM in the assay on OVCAR-4 ovarian; 16.8 µM and 16.2 µM with U251 CNS; 40700 nM with HL-60(TB) leukemia; 63.4 µM and > 100 µM with TK-10 renal; 2.43 µM and 2.11 µM in the assay with M14 melanoma; > 100 µM with HCT-15 colon. In addition, the TGI was > 100 µM in the assay on MDA-MB-435; 37.2 µM and > 100 µM in the assay with SK-MEL-2 melanoma; 30.8 µM and > 100 µM in the assay on EKVX NSCLC; 43.2 µM and > 100 µM in the assay on OVCAR-8 ovarian.
On to `Cc1ccc2c(-c3ccnc(Nc4ccc5c(c4)OCCO5)n3)c(-c3ccc(C(F)(F)F)cc3)nn2n1`, for which the GI50 in the assay on OVCAR-4 ovarian is 8.59 µM; in the assay on U251 CNS, 20800 nM; in the assay with HL-60(TB) leukemia it was 6810 nM; in the assay with TK-10 renal, 8110 nM; in the assay on M14 melanoma, 3580 nM; in the assay with HCT-15 colon, 8690 nM. Also, the GI50 was 17200 nM in the assay with MDA-MB-435, 8420 nM in the assay with SK-MEL-2 melanoma, 4720 nM with EKVX NSCLC and 8.48 µM in the assay with OVCAR-8 ovarian. Besides, the TGI was > 25 µM in the assay with OVCAR-4 ovarian; > 25 µM in the assay with U251 CNS; 19400 nM with HL-60(TB) leukemia; > 25 µM with TK-10 renal; 9.43 µM with M14 melanoma; > 25 µM in the assay on HCT-15 colon. Also, the TGI in the assay on MDA-MB-435, in the assay on SK-MEL-2 melanoma, in the assay on EKVX NSCLC and in the assay on OVCAR-8 ovarian was > 25 µM each time.
As to `CNC(=O)c1ncccc1Nc1nc(Nc2cc3c(cc2OC)CCCN3C(=O)CN(C)C)nc2[nH]ccc12`, the GI50 with OVCAR-4 ovarian was 2.98 µM; in the assay on U251 CNS it was 2020 nM; with HL-60(TB) leukemia, 92.1 nM; with TK-10 renal, 2220 nM; in the assay with M14 melanoma it was 1870 nM; in the assay on HCT-15 colon, 1840 nM. Also, the GI50 was 244 nM in the assay with MDA-MB-435, 877 nM in the assay with SK-MEL-2 melanoma, 1550 nM in the assay on EKVX NSCLC and 1.25 µM with OVCAR-8 ovarian. For the same compound, the TGI was determined as 6.67 µM with OVCAR-4 ovarian; 5.38 µM with U251 CNS; 803 nM in the assay on HL-60(TB) leukemia; 6.7 µM with TK-10 renal; 5.78 µM in the assay with M14 melanoma; 9.35 µM in the assay on HCT-15 colon. For the same compound, the TGI is 1.78 µM with MDA-MB-435, 3.89 µM in the assay on SK-MEL-2 melanoma, 6.52 µM in the assay with EKVX NSCLC and 5.1 µM in the assay on OVCAR-8 ovarian.
With `COCC([C@@H](O)C(O)C(=O)NCC[C@@H](C)c1nc(/C=C/CC2OC3(C[C@H](O)C2C)OC(C(C[C@H](O)C(C)[C@H](O)C(C)/C=C(C)/C(C)=C/C=C/C(C)=C/C#N)OC)[C@@H](OP(=O)(O)O)C3(C)C)co1)N(C)C` (stereo partly drawn), the TGI was found to be 0.00274 µM in the assay on OVCAR-4 ovarian; 0.000332 µM in the assay with U251 CNS; 2.07 nM with HL-60(TB) leukemia; 0.00024 µM in the assay with TK-10 renal; 0.000323 µM in the assay with M14 melanoma; 0.000462 µM in the assay with HCT-15 colon. Also, the TGI in the assay on MDA-MB-435 is 0.000336 µM; in the assay with SK-MEL-2 melanoma it was 0.000333 µM; with EKVX NSCLC, 0.000326 µM; in the assay on OVCAR-8 ovarian, 0.000423 µM.
Consider `Cc1cc(O)c2c(c1)C(=O)C=CC2=O`, for which the GI50 with OVCAR-4 ovarian was 14.5 µM and 6.75 µM; with U251 CNS, 14200 nM and 5290 nM; in the assay on HL-60(TB) leukemia, 33.6 nM and 310 nM; in the assay on TK-10 renal, 5920 nM and 12700 nM; in the assay on HCT-15 colon, 7780 nM and 3530 nM; with MDA-MB-435, 4800 nM and 1930 nM. For the same compound, the GI50 with EKVX NSCLC was 7460 nM and 3600 nM; in the assay with OVCAR-8 ovarian it was 14.1 µM and 4.75 µM. The TGI is 28.8 µM and 19.5 µM in the assay with OVCAR-4 ovarian; 33.7 µM and 23.4 µM with U251 CNS; 202 nM and 1890 nM in the assay on HL-60(TB) leukemia; 15.6 µM and 26.9 µM with TK-10 renal; 25.7 µM and 21.7 µM in the assay on M14 melanoma; 24.9 µM and 9.83 µM in the assay on HCT-15 colon. Moreover, the TGI in the assay on MDA-MB-435 is 11.7 µM and 4.25 µM; in the assay on SK-MEL-2 melanoma it was 36.8 µM and 44.3 µM; in the assay on EKVX NSCLC it was 20.6 µM and 15.2 µM; in the assay on OVCAR-8 ovarian, 43.9 µM and 14.8 µM.
Take `CC1=C(C(=O)Nc2ccccc2)C(c2ccc(N(C)C)cc2)C(C(=O)Nc2ccccc2)=C(C)N1`: the TGI in the assay on OVCAR-4 ovarian is > 100 µM; in the assay on U251 CNS it was > 72.4 µM; in the assay with HL-60(TB) leukemia it was 49400 nM; in the assay with TK-10 renal, > 100 µM; in the assay with M14 melanoma, > 56 µM; with HCT-15 colon it was 15.3 µM. In addition, the TGI with MDA-MB-435 was > 26.7 µM; in the assay on SK-MEL-2 melanoma, > 100 µM; with EKVX NSCLC it was > 100 µM; in the assay on OVCAR-8 ovarian, > 100 µM.
In the case of `OC1(c2ccc(Cl)c(C(F)(F)F)c2)CCN(CCCC(c2ccc(F)cc2)c2ccc(F)cc2)CC1`, the GI50 with OVCAR-4 ovarian was 0.804 µM; in the assay on U251 CNS it was 784 nM; in the assay on HL-60(TB) leukemia, 1010 nM; with TK-10 renal, 890 nM; in the assay on M14 melanoma, 828 nM; in the assay with HCT-15 colon, 888 nM. Further, the GI50 is 819 nM with MDA-MB-435, 955 nM with SK-MEL-2 melanoma, 1470 nM in the assay on EKVX NSCLC and 0.823 µM in the assay on OVCAR-8 ovarian. Further, the TGI in the assay with OVCAR-4 ovarian was 1.82 µM; in the assay with U251 CNS, 1.45 µM; with HL-60(TB) leukemia, 2020 nM; with TK-10 renal, 1.69 µM; with M14 melanoma it was 1.52 µM; with HCT-15 colon, 1.75 µM. The TGI in the assay with MDA-MB-435 came out at 1.53 µM; in the assay on SK-MEL-2 melanoma it was 1.76 µM; with EKVX NSCLC, 6.2 µM; with OVCAR-8 ovarian, 1.53 µM.
